Inconclusive results are not listed.
Test system: MX-1 breast xenograft, nude mice, tumor weight T/C
Test: NCI In Vivo Anticancer Drug Screen. Data for tumor model Human Mammary Carcinoma MX-1 Xenograft (intrarenal inoculation) in NU/NU Swiss (nude) mice
Details: endpoint: mean tumor weight change, higher = larger tumour
Summary of the method: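 Compound dosed to mice with transplantable tumor; vehicle group as control. Endpoint survival or tumour size, reported as T/C.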

Question: `CC1CCC(NC(=O)N(CCCl)N=O)CC1` (stereo unspecified) was tested. Which T/C (dose: 6.25 mg/kg/injection, schedule: Q01DX010 (sc), vehicle: Klucel (hydroxypropylcellulose) (HPC)) did it give?
Answer: 74 % of control

Question: What about the T/C (dose: 12.5 mg/kg/injection, schedule: Q01DX010 (sc), vehicle: Klucel (hydroxypropylcellulose) (HPC)) of the same compound?
Answer: 78 % of control

Question: How did the T/C (dose: 75.0 mg/kg/injection, schedule: Q04DX003 (sc), vehicle: saline) turn out when `O=C1C(O)=C(c2ccccc2)C(=O)C(O)=C1c1ccccc1` was run?
Answer: 118 % of control

Question: What about the T/C (dose: 150.0 mg/kg/injection, schedule: Q04DX003 (sc), vehicle: saline) of the same compound?
Answer: 74 % of control

Question: What about the T/C (dose: 300.0 mg/kg/injection, schedule: Q04DX003 (sc), vehicle: saline) of the same compound?
Answer: 61 % of control

Question: Which T/C (dose: 25.0 mg/kg/injection, schedule: Q04DX003 (sc), vehicle: saline) does the source give for `c1cc(-c2cc3ccc(C4=NCCN4)cc3[nH]2)ccc1C1=NCCN1` here?
Answer: 66 % of control

Question: What about the T/C (dose: 50.0 mg/kg/injection, schedule: Q04DX003 (sc), vehicle: saline) of the same compound?
Answer: 73 % of control

Question: What about the T/C (dose: 100.0 mg/kg/injection, schedule: Q04DX003 (sc), vehicle: saline) of the same compound?
Answer: 50 % of control

Question: Which results are given for `O=C1[C@H]2CCC[C@H]2[C@H]2CCC[C@@H]12`?
Answer: T/C (dose: 300.0 mg/kg/injection, schedule: Q04DX003 (sc), vehicle: saline with Tween-80): 112 % of control; T/C (dose: 600.0 mg/kg/injection, schedule: Q04DX003 (sc), vehicle: saline with Tween-80): 123 % of control; T/C (dose: 1200.0 mg/kg/injection, schedule: Q04DX003 (sc), vehicle: saline with Tween-80): 95 % of control; T/C (dose: 2400.0 mg/kg/injection, schedule: Q04DX003 (sc), vehicle: saline with Tween-80): 92 % of control

Question: For `COc1cc2cc[n+](C)c(Cc3ccccc3)c2cc1OC`, which T/C (dose: 18.75 mg/kg/injection, schedule: Q04DX003 (sc), vehicle: Klucel (hydroxypropylcellulose) (HPC)) is on record?
Answer: 90 % of control

Question: What about the T/C (dose: 37.5 mg/kg/injection, schedule: Q04DX003 (sc), vehicle: Klucel (hydroxypropylcellulose) (HPC)) of the same compound?
Answer: 115 % of control

Question: What about the T/C (dose: 75.0 mg/kg/injection, schedule: Q04DX003 (sc), vehicle: Klucel (hydroxypropylcellulose) (HPC)) of the same compound?
Answer: 58 % of control

Question: What does the source list for `N#Cc1nc(C#N)c(Sc2ccccc2)c(Sc2ccccc2)c1Sc1ccccc1`?
Answer: T/C (dose: 25.0 mg/kg/injection, schedule: Q01DX010 (sc), vehicle: saline with Tween-80): 57 % of control; T/C (dose: 100.0 mg/kg/injection, schedule: Q01DX010 (sc), vehicle: saline with Tween-80): 24 % of control; T/C (dose: 200.0 mg/kg/injection, schedule: Q01DX010 (sc), vehicle: saline with Tween-80): 80 % of control

Question: What does the source list for `Cc1cc(NC(=S)SCc2ccc3c(c2)OCO3)ccc1Cl`?
Answer: T/C (dose: 150.0 mg/kg/injection, schedule: Q04DX003 (sc), vehicle: Klucel (hydroxypropylcellulose) (HPC)): 106 % of control; T/C (dose: 300.0 mg/kg/injection, schedule: Q04DX003 (sc), vehicle: Klucel (hydroxypropylcellulose) (HPC)): 104 % of control; T/C (dose: 600.0 mg/kg/injection, schedule: Q04DX003 (sc), vehicle: Klucel (hydroxypropylcellulose) (HPC)): 118 % of control; T/C (dose: 1200.0 mg/kg/injection, schedule: Q04DX003 (sc), vehicle: Klucel (hydroxypropylcellulose) (HPC)): 88 % of control

Question: Which T/C (dose: 3.0 mg/kg/injection, schedule: Q01DX010 (sc), vehicle: saline) does the source give for `O=C1NC2(CCCCC2)C(=O)N1CCN(CCCl)CCCl` here?
Answer: 48 % of control

Question: What does the source list for `CCCCC1CCCCCCc2[nH]c(/C=C3\N=C(c4ccc[nH]4)C=C3OC)cc21` (stereo unspecified)?
Answer: T/C (dose: 4.0 mg/kg/injection, schedule: Q04DX003 (sc), vehicle: saline with Tween-80): 82 % of control; T/C (dose: 8.0 mg/kg/injection, schedule: Q04DX003 (sc), vehicle: saline with Tween-80): 107 % of control; T/C (dose: 16.0 mg/kg/injection, schedule: Q04DX003 (sc), vehicle: saline with Tween-80): 105 % of control; T/C (dose: 32.0 mg/kg/injection, schedule: Q04DX003 (sc), vehicle: saline with Tween-80): 80 % of control

Question: For `CCOC(=O)NC1=C(N2CC2)C(=O)C(NC(=O)OCC)=C(N2CC2)C1=O`, which T/C (dose: 1.56 mg/kg/injection, schedule: Q01DX010 (sc), vehicle: saline) is on record?
Answer: 1 % of control

Question: What about the T/C (dose: 3.13 mg/kg/injection, schedule: Q01DX010 (sc), vehicle: saline) of the same compound?
Answer: 3 % of control

Question: And the T/C (dose: 3.13 mg/kg/injection, schedule: Q04DX003 (ip), vehicle: suspension in saline)?
Answer: 41 % of control

Question: And the T/C (dose: 6.25 mg/kg/injection, schedule: Q04DX003 (ip), vehicle: suspension in saline)?
Answer: -44 % of control

Question: And the T/C (dose: 12.5 mg/kg/injection, schedule: Q04DX003 (ip), vehicle: suspension in saline)?
Answer: -100 % of control

Question: `O=NN(CCF)C(=O)NC1CCCCC1` was tested. Which T/C (dose: 3.12 mg/kg/injection, schedule: Q04DX003 (sc), vehicle: Klucel (hydroxypropylcellulose) (HPC)) did it give?
Answer: 119 % of control

Question: And the T/C (dose: 6.25 mg/kg/injection, schedule: Q04DX003 (sc), vehicle: Klucel (hydroxypropylcellulose) (HPC))?
Answer: 88 % of control

Question: And the T/C (dose: 12.5 mg/kg/injection, schedule: Q04DX003 (sc), vehicle: Klucel (hydroxypropylcellulose) (HPC))?
Answer: 91 % of control

Question: And the T/C (dose: 25.0 mg/kg/injection, schedule: Q04DX003 (sc), vehicle: Klucel (hydroxypropylcellulose) (HPC))?
Answer: 92 % of control

From PubChem BioAssay AID296 (DTP/NCI, 2004)
